Where “and” joins values, the source holds several entries; their conditions need not be identical. Equal values may be shown once. Each block holds one compound with its values, some of them ahead of it.
Test system: K98450-129-R-PDC multicell spheroids, viability
Assay: Anticancer human tumor K98450-129-R-PDC patient-derived colon adenocarcinoma cell line growth inhibition [PI3K]
Details: for viability, T/C: stronger effect = lower value
Procedure, shortened: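 Viability of mixed-cell spheroids was determined after exposure to pairwise combinations, one partner being inavolisib, alpelisib, duvelisib or copanlisib. Highest tested concentration matched clinical Cmax where known and 10 microM where not, descending in half-log steps.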

[1] = curve of first compound, second compound 0.0316 µM
[2] = curve of first compound, second compound 0.1 µM
[3] = curve of first compound, second compound 0.316 µM
[4] = curve of first compound, second compound 1 µM
[5] = second compound 0.0316 µM, first compound 0.00316 µM
[6] = second compound 0.0316 µM, first compound 0.01 µM
[7] = second compound 0.0316 µM, first compound 0.0316 µM
[8] = second compound 0.0316 µM, first compound 0.1 µM
[9] = second compound 0.0316 µM, first compound 0.316 µM
[10] = second compound 0.0316 µM, first compound 1 µM
[11] = second compound 0.1 µM, first compound 0.00316 µM
[12] = second compound 0.1 µM, first compound 0.01 µM
[13] = second compound 0.1 µM, first compound 0.0316 µM
[14] = second compound 0.1 µM, first compound 0.1 µM
[15] = second compound 0.1 µM, first compound 0.316 µM
[16] = second compound 0.1 µM, first compound 1 µM
[17] = second compound 0.316 µM, first compound 0.00316 µM
[18] = second compound 0.316 µM, first compound 0.01 µM
[19] = second compound 0.316 µM, first compound 0.0316 µM
[20] = second compound 0.316 µM, first compound 0.1 µM
[21] = second compound 0.316 µM, first compound 0.316 µM
[22] = second compound 0.316 µM, first compound 1 µM
[23] = second compound 1 µM, first compound 0.00316 µM
[24] = second compound 1 µM, first compound 0.01 µM
[25] = second compound 1 µM, first compound 0.0316 µM
[26] = second compound 1 µM, first compound 0.1 µM
[27] = second compound 1 µM, first compound 0.316 µM
[28] = second compound 1 µM, first compound 1 µM
[29] = curve of first compound, second compound 3.16 µM
[30] = curve of first compound, second compound 10 µM
[31] = second compound 3.16 µM, first compound 0.0316 µM
[32] = second compound 3.16 µM, first compound 0.1 µM
[33] = second compound 3.16 µM, first compound 0.316 µM
[34] = second compound 3.16 µM, first compound 1 µM
[35] = second compound 10 µM, first compound 0.0316 µM
[36] = second compound 10 µM, first compound 0.1 µM
[37] = second compound 10 µM, first compound 0.316 µM
[38] = second compound 10 µM, first compound 1 µM
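Further: spheroids exposed to agents for seven days before read-out.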

IC50 (curve of first compound, second compound 0.00316 µM): > 1000 nM | IC50 (curve of first compound, second compound 0.01 µM): > 1000 nM | IC50 [1]: > 1000 nM | IC50 [2]: > 1000 nM | IC50 [3]: > 1000 nM | IC50 [4]: > 1000 nM
SMILES: CCN1CCN(Cc2ccc(Nc3ncc(F)c(-c4cc(F)c5nc(C)n(C(C)C)c5c4)n3)nc2)CC1 + CC(Nc1ccc2c(c1)OCCn1cc(N3C(=O)OCC3C(F)F)nc1-2)C(N)=O
viability, T/C (second compound 0.00316 µM, first compound 0.00316 µM): 105% | viability, T/C (second compound 0.00316 µM, first compound 0.01 µM): 92.2% | viability, T/C (second compound 0.00316 µM, first compound 0.0316 µM): 104% | viability, T/C (second compound 0.00316 µM, first compound 0.1 µM): 90.3% | viability, T/C (second compound 0.00316 µM, first compound 0.316 µM): 81% | viability, T/C (second compound 0.00316 µM, first compound 1 µM): 82.9% | viability, T/C (second compound 0.01 µM, first compound 0.00316 µM): 117% | viability, T/C (second compound 0.01 µM, first compound 0.01 µM): 90.5% | viability, T/C (second compound 0.01 µM, first compound 0.0316 µM): 98.7% | viability, T/C (second compound 0.01 µM, first compound 0.1 µM): 92.3% | viability, T/C (second compound 0.01 µM, first compound 0.316 µM): 84.9% | viability, T/C (second compound 0.01 µM, first compound 1 µM): 86.9% | viability, T/C [5]: 109% | viability, T/C [6]: 100% | viability, T/C [7]: 93.8% | viability, T/C [8]: 89.9% | viability, T/C [9]: 94.5% | viability, T/C [10]: 92.6% | viability, T/C [11]: 92.9% | viability, T/C [12]: 96.8% | viability, T/C [13]: 97.4% | viability, T/C [14]: 85.5% | viability, T/C [15]: 83.7% | viability, T/C [16]: 82.8% | viability, T/C [17]: 90.6% | viability, T/C [18]: 98.3% | viability, T/C [19]: 95.7% | viability, T/C [20]: 86.5% | viability, T/C [21]: 85.4% | viability, T/C [22]: 79.3% | viability, T/C [23]: 90.5% | viability, T/C [24]: 88% | viability, T/C [25]: 86.8% | viability, T/C [26]: 82.3% | viability, T/C [27]: 83.9% | viability, T/C [28]: 81.6%

IC50 [1]: > 10000 nM | IC50 [2]: > 10000 nM | IC50 [3]: > 10000 nM | IC50 [4]: > 10000 nM | IC50 [29]: > 10000 nM | IC50 [30]: > 10000 nM
SMILES: Cn1nccc1Nc1nccc(-c2ccn(C(CO)c3ccc(Cl)c(F)c3)c(=O)c2)n1 (stereo not drawn) + Cc1nc(NC(=O)N2CCCC2C(N)=O)sc1-c1ccnc(C(C)(C)C(F)(F)F)c1
viability, T/C [7]: 107% | viability, T/C [8]: 97.7% | viability, T/C [9]: 103% | viability, T/C [10]: 109% | viability, T/C (second compound 0.0316 µM, first compound 3.16 µM): 97.2% | viability, T/C (second compound 0.0316 µM, first compound 10 µM): 89.2% | viability, T/C [13]: 114% | viability, T/C [14]: 104% | viability, T/C [15]: 100% | viability, T/C [16]: 92.6% | viability, T/C (second compound 0.1 µM, first compound 3.16 µM): 96.7% | viability, T/C (second compound 0.1 µM, first compound 10 µM): 97.8% | viability, T/C [19]: 104% | viability, T/C [20]: 103% | viability, T/C [21]: 94.1% | viability, T/C [22]: 98.6% | viability, T/C (second compound 0.316 µM, first compound 3.16 µM): 98.5% | viability, T/C (second compound 0.316 µM, first compound 10 µM): 83.3% | viability, T/C [25]: 91.6% | viability, T/C [26]: 95.2% | viability, T/C [27]: 93.5% | viability, T/C [28]: 84.9% | viability, T/C (second compound 1 µM, first compound 3.16 µM): 98.6% | viability, T/C (second compound 1 µM, first compound 10 µM): 80.8% | viability, T/C [31]: 78.9% | viability, T/C [32]: 86.1% | viability, T/C [33]: 87% | viability, T/C [34]: 77.9% | viability, T/C (second compound 3.16 µM, first compound 3.16 µM): 85.4% | viability, T/C (second compound 3.16 µM, first compound 10 µM): 64.7% | viability, T/C [35]: 71% | viability, T/C [36]: 70.7% | viability, T/C [37]: 72.2% | viability, T/C [38]: 75% | viability, T/C (second compound 10 µM, first compound 3.16 µM): 77.8% | viability, T/C (second compound 10 µM, first compound 10 µM): 50.9%

IC50 (curve of compound): > 100 nM
SMILES: CC(=O)c1c(C)c2cnc(Nc3ccc(N4CCNCC4)cn3)nc2n(C2CCCC2)c1=O
viability, T/C (compound 0.000316 µM): 105% [middle of 4 runs] | viability, T/C (compound 0.001 µM): 106% [middle of 4 runs] | viability, T/C (compound 0.00316 µM): 104% [middle of 4 runs] | viability, T/C (compound 0.01 µM): 104% (2×) and 102% and 99.6% | viability, T/C (compound 0.0316 µM): 101% [middle of 4 runs] | viability, T/C (compound 0.1 µM): 95.5% [middle of 4 runs]

IC50 [1]: > 1000 nM | IC50 [2]: > 1000 nM | IC50 [3]: > 1000 nM | IC50 [4]: > 1000 nM | IC50 [29]: > 1000 nM | IC50 [30]: > 1000 nM
SMILES: CCN1CCN(Cc2ccc(Nc3ncc(F)c(-c4cc(F)c5nc(C)n(C(C)C)c5c4)n3)nc2)CC1 + Cc1nc(NC(=O)N2CCCC2C(N)=O)sc1-c1ccnc(C(C)(C)C(F)(F)F)c1
viability, T/C [5]: 115% | viability, T/C [6]: 97.7% | viability, T/C [7]: 106% | viability, T/C [8]: 91.1% | viability, T/C [9]: 86.9% | viability, T/C [10]: 94.8% | viability, T/C [11]: 115% | viability, T/C [12]: 95.9% | viability, T/C [13]: 99.8% | viability, T/C [14]: 93.5% | viability, T/C [15]: 96.8% | viability, T/C [16]: 91.1% | viability, T/C [17]: 103% | viability, T/C [18]: 102% | viability, T/C [19]: 91.1% | viability, T/C [20]: 87.7% | viability, T/C [21]: 85.3% | viability, T/C [22]: 96% | viability, T/C [23]: 98.3% | viability, T/C [24]: 89.4% | viability, T/C [25]: 91.2% | viability, T/C [26]: 87.4% | viability, T/C [27]: 84.6% | viability, T/C [28]: 85.6% | viability, T/C (second compound 3.16 µM, first compound 0.00316 µM): 84.8% | viability, T/C (second compound 3.16 µM, first compound 0.01 µM): 80.6% | viability, T/C [31]: 86.2% | viability, T/C [32]: 84.7% | viability, T/C [33]: 79.3% | viability, T/C [34]: 83.5% | viability, T/C (second compound 10 µM, first compound 0.00316 µM): 73.7% | viability, T/C (second compound 10 µM, first compound 0.01 µM): 75.9% | viability, T/C [35]: 70.6% | viability, T/C [36]: 67.5% | viability, T/C [37]: 67% | viability, T/C [38]: 70.4%
